In article PMC8196714, “Design, Radiosynthesis and Preliminary Biological Evaluation in Mice of a Brain-Penetrant ^18F-Labelled σ2 Receptor Ligand” (International Journal of Molecular Sciences, 2021):

Key:
σ2 receptor [1] = target: T1, σ2 receptor (Rattus norvegicus, UniProt Q5U3Y7); assay: σ2 receptor affinity, inhibition of [3H]DTG binding in rat liver membrane homogenates; design: preparations of membrane homogenates obtained from rat liver; from tissue; host or cells: rat liver; conditions: for Ki: [3H]DTG, rat liver membrane homogenates
T1 sequence (Q5U3Y7 1-176): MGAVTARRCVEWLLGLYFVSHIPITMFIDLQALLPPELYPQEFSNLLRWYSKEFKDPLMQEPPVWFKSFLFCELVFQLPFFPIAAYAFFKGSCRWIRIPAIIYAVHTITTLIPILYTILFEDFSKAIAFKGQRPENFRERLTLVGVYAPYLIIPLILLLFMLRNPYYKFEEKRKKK
Procedure: Initially, we assessed the affinity of all derivatives towards the target protein and investigated the inhibition of the binding of [^3H]DTG in preparations of membrane homogenates obtained from rat liver, which is known to express high levels of σ2 receptors.
(§1) Binding affinity experiments to assess the Ki values of test compounds towards rat σ2 receptors, human σ1 receptors, and rat VAChT were performed according to protocols previously published by our group. The same protocol was used to determine the KD and Bmax values of RM273 towards σ2 receptors expressed in F98 cells by homologous competition analyzing the displacement of [^18F]RM273 by RM273.

rat VAChT = target: T2, rat VAChT (Rattus norvegicus, UniProt Q62666); assay: Displacement of [3H]vesamicol in membrane homogenates of PC12 cells stably expressing rat VAChT; format: binding
T2 construct: expressed in transfected cells; host or cells: PC12 cells
T2 sequence (Q62666 1-530): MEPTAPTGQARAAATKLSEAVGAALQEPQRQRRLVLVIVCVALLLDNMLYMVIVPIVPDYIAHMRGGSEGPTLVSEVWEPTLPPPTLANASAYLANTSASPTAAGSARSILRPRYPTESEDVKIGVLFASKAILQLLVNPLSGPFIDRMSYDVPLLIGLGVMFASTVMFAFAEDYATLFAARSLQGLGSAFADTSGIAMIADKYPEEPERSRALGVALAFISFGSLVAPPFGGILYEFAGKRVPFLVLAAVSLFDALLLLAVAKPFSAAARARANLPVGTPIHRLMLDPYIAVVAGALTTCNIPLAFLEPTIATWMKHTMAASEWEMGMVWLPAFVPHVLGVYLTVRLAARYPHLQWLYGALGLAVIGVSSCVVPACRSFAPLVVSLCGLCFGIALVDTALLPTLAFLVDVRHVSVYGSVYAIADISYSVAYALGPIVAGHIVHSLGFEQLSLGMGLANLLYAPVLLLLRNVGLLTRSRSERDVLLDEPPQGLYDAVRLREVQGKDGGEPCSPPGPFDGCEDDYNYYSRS
Procedure: Because ligands targeting σ receptors may be impaired by off-target binding towards the vesicular acetylcholine transporter (VAChT), we determined in the next step the affinity of RM273 towards this protein.
as §1

guinea pig σ1 receptors = guinea pig σ1 receptors (Cavia porcellus, UniProt Q60492); assay: σ1 receptor affinity, competitive binding with [3H]-(+)-pentazocine (WWU); conditions: determined at WWU
Text: To decide which of the nine compounds would be suitable for subsequent radiofluorination, we determined the affinity towards the σ1 receptor as the most relevant off-target protein. […] To finally select the best derivative for radiofluorination, we calculated the σ2:σ1 selectivity values and identified RM273 (41) as the most suitable one with a ratio of about 400.

human σ1 receptors = human σ1 receptors (Homo sapiens, UniProt Q99720); assay: σ1 receptor affinity, competitive binding with [3H]-(+)-pentazocine (HZDR Leipzig); conditions: determined at HZDR Leipzig
Procedure: To decide which of the nine compounds would be suitable for subsequent radiofluorination, we determined the affinity towards the σ1 receptor as the most relevant off-target protein.
as §1

σ2 receptor [2] = target: T1, σ2 receptor; assay: In vitro autoradiography on rat brain cryosections (healthy and orthotopic F98 glioblastoma); format: binding; design: from tissue; host or cells: rat brain cryosections (SPRD healthy; Fisher F344 with orthotopic F98 glioblastoma); conditions: autoradiography, co-incubation with competitor at 10^−6 M
Text: Initially, we investigated the binding of [^18F]RM273 on rat brain slices by autoradiography to compare the distribution pattern with that of established σ2 receptor ligands and to examine the target specificity. The highest binding was found in the cortical areas and hippocampal structures. […] Accordingly, we proceeded to investigate, in a rat glioblastoma model, the potential suitability of [^18F]RM273 for molecular characterization of cancer. At first, homologous competition studies using membrane homogenates of the rat glioma cell line F98 were performed to determine the σ2 receptor binding parameters of [^18F]RM273 cells (Figure 3).
We subsequently investigated the binding parameters of [^18F]RM273 by in vitro autoradiography using cryosections of rat brains obtained three weeks after stereotactic implantation of F98 rat glioblastoma cells into the left striatum. Initially, we performed a homologous displacement study to directly compare the binding sites of the new radioligand in a healthy brain and a brain tumor. The inhibition curves presented in Figure 3 indicate binding of [^18F]RM273 to single binding sites in both brain regions. […] Further supporting the assumption of a tumor-specific overexpression of σ2 receptors, a remarkably high density of binding sites of [^18F]RM273 in the F98 tumor tissue was observed (Figure 4). Compared to the healthy tissue (contralateral side), about three times more specific binding sites of [^18F]RM273 were estimated for the tumor region (32 × 10^−9 mol/L vs. 94 × 10^−9 mol/L at 1.5 nM [^18F]RM273).
In vitro autoradiography was performed using cryosections of brains of a healthy rat (SPRD, female, 250 g; Medizinisch-Experimentelles Zentrum, Universität Leipzig, Leipzig, Germany) and brains obtained from rats (Fisher F344/HanZtmRj, male, ≈260 g; Janvier Labs, Le Genest-Saint-Isle, France) 23 days after stereotactic implantation of 5 × 10^4 F98 cells in the […] striatum (n = 2).
Immediately after isolation, the brains were frozen by immersion in isopentane at −25 °C. Cryosections of 12 μm (Microm HM560 cryostat, Thermo Scientific, Schwerte, Germany) were mounted on microscopic glass slides, dried at room temperature, and stored at −25 °C. For the experiment, the slices were dried at room temperature under a stream of cold air before pre-incubation in PBS, pH 7.4, at room temperature for 15 min. […] Co-incubation with serial dilutions of RM273 (10^−10–10^−6 M) was performed to determine an inhibition curve. After 60 min, the incubation at room temperature was terminated by decanting and washing the slides by two consecutive incubations in ice-cold washing buffer (50 mM TRIS-HCl, pH 7.4 at 4 °C) for two min each, followed by dipping in ice-cold demineralized water for 5 sec and drying under a stream of cold air. In parallel, for subsequent quantification of the data obtained from the homologous competition experiment, defined volumes, and thus defined activities of the radioligand solution, were pipetted onto a microscopic glass slide (0.5–3 μL = 0.0355–0.213 kBq) and dried. Afterwards the tissue samples along with the standards were exposed to an ^18F-sensitive phosphor screen (ABC) for two hours. Image acquisition was performed using a phosphorimager (HD-CR 35; DÜRR NDT GmbH & Co. KG, Bietigheim-Bissingen, Germany). Analysis of the digitized images was performed by image analysis software (AIDA; Elysia-raytest GmbH, Straubenhardt, Germany).
Irregular regions of interest (ROI) were drawn on the standard spots and the different brain regions, which were confirmed by Nissl staining of the identical brain sections. Optical density measured in each ROI was expressed as quantum levels per unit area (QL/pixel) with a pixel size of 12.5 μm^2. From the calibration curve obtained from the standards by plotting QL vs. activity, the QL values of the ROIs were converted to activity values followed by conversion to chemical concentration of RM273 based on the molar activity of [^18F]RM273. […]

[3] = design: method as in PMID 17579383; conditions: 5 min p.i. ref 25; cited from earlier work
[4] = Ki σ1 from guinea pig σ1 receptors

Chain of guinea pig σ1 receptors (Q60492 whole entry): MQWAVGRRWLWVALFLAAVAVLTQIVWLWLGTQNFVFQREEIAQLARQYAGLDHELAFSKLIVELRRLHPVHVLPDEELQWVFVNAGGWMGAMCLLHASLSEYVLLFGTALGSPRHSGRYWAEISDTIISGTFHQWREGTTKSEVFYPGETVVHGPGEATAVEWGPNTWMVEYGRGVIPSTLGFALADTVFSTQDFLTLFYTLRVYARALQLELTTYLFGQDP
Chain of human σ1 receptors (Q99720 whole entry): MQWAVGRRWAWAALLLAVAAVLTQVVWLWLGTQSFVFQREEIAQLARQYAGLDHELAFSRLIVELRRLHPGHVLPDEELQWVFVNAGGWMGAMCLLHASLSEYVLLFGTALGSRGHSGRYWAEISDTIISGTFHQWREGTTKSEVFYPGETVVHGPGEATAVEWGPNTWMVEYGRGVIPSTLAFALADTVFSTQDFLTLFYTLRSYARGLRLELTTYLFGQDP

| SMILES | Selectivity (Ki σ1/Ki σ2) (σ2 receptor [1]; [4]) | Ki (σ2 receptor [1]) [µM] | Ki (guinea pig σ1 receptors) [µM] | Selectivity (Ki σ1/Ki σ2) (σ2 receptor [1]; Ki σ1 from human σ1 receptors) | Ki (human σ1 receptors) [µM] | further results |
| --- | --- | --- | --- | --- | --- | --- |
| COc1cc2c(cc1OC)CN(CCCCn1ccc3ccc(F)nc31)CC2 [41 (RM273), 2-(4-(6-Fluoro-1H-pyrrolo[2,3-b]pyridin-1-yl)butyl)-6,7-dimethoxy-1,2,3,4-tetrahydroisoquinoline] | 432 | 0.0016 | 0.691 |  |  | Selectivity (Ki σ1/Ki σ2) (σ2 receptor [1]; Ki σ1 from guinea pig σ1 receptors, listed as RM273 (41)): about 400; Ki (rat VAChT): > 2 µM |
| COc1cc2c(cc1OC)CN(CCCCn1ccc3ccnc(F)c31)CC2 [42 (RM297), 2-[4-(7-Fluor-1H-pyrrolo[2,3-c]pyridin-1-yl)butyl]-6,7-dimethoxy-1,2,3,4-tetrahydroisochinolin] | 339 | 0.0027 | 0.916 |  |  |  |
| COc1cc2c(cc1OC)CN(CCCCn1ccc3c(F)cccc31)CC2 [Compound 34, 2-[4-(4-Fluoro-1H-indol-1-yl)butyl]-6,7-dimethoxy-1,2,3,4-tetrahydroisoquinoline] |  | 0.014 |  | 1.5 | 0.021 |  |
| COc1cc2c(cc1OC)CN(CCCCn1ccc3cc(F)ccc31)CC2 [Compound 35, 2-(4-(5-Fluoro-1H-indol-1-yl)butyl)-6,7-dimethoxy-1,2,3,4-tetrahydroisoquinoline] |  | 0.012 |  | 9.7 | 0.116 |  |
| COc1cc2c(cc1OC)CN(CCCCn1ccc3ccc(F)cc31)CC2 [Compound 36, 2-(4-(6-Fluoro-1H-indol-1-yl)butyl)-6,7-dimethoxy-1,2,3,4-tetrahydroisoquinoline] |  | 0.0071 |  | 6.5 | 0.046 |  |
| COc1cc2c(cc1OC)CN(CCCCn1ccc3cccc(F)c31)CC2 [Compound 37, 2-(4-(7-Fluoro-1H-indol-1-yl)butyl)-6,7-dimethoxy-1,2,3,4-tetrahydroisoquinoline] |  | 0.01 |  | 8 | 0.08 |  |
| COc1cc2c(cc1OC)CN(CCCCn1ccc3c(F)nccc31)CC2 [Compound 38, 2-[4-(4-Fluor-1H-pyrrolo[3,2-c]pyridin-1-yl)butyl]-6,7-dimethoxy-1,2,3,4-tetrahydroisochinolin] | 14 | 0.0055 | 0.08 |  |  |  |
| COc1cc2c(cc1OC)CN(CCCCn1ccc3nc(F)ccc31)CC2 [Compound 39, 2-[4-(5-Fluor-1H-pyrrolo[3,2-b]pyridin-1-yl)butyl]-6,7-dimethoxy-1,2,3,4-tetrahydroisochinolin] | 32 | 0.0038 | 0.122 |  |  |  |
| COc1cc2c(cc1OC)CN(CCCCn1ccc3cc(F)ncc31)CC2 [Compound 40, 2-[4-(5-Fluor-1H-pyrrolo[2,3-c]pyridin-1-yl)butyl]-6,7-dimethoxy-1,2,3,4-tetrahydroisochinolin] | 85 | 0.001 | 0.085 |  |  |  |
| COc1cccc2c1CCCC2CCCN1CCN(C2CCCCC2)CC1 (centres unmarked) [PB28, reference compound] |  |  |  |  |  | displacement of [18F]RM273 binding on rat brain slices (σ2 receptor [2]): completely displaceable |
| Fc1ccc(-n2cc(CCCCN3CCC4(CC3)OCc3ccccc34)c3ccccc32)cc1 [Siramesine, siramesine, reference compound] |  |  |  |  |  | displacement of [18F]RM273 binding on rat brain slices (σ2 receptor [2]): completely displaceable |
| COc1cc2c(cc1OC)CN(CCCCNC(=O)c1cc(C)ccc1OCC[18F])CC2 [[^18F]ISO-I] |  |  |  |  |  | brain uptake [3]: 0.76 % ID/g |
